Here are results for twelve compounds from patent EP0337167B1, “4-Aryl-4-piperidine (or pyrrolidine or hexahydroazepine) carbinols and heterocyclic analogs thereof” (THE DU PONT MERCK PHARMACEUTICAL COMPANY, priority 1988, dated 1989).

For experiment [1] the following is noted: literature statement (A. L. Morrison et al., J.Chem. Soc., 1467, 1950); cited from earlier work.
For experiment [2], the system named is Male CF1 mice. The experiment in a line: Mouse antiphenylquinone writhing (PQW) test. Type of experiment: in vivo. Also noted: Mouse PQW ED50 (mg/kg): unit not given here. The settings on record: for ED50: Mus musculus, 0.5 h, phenylquinone 1.25 mg/kg i.p., observation beginning 30 min after injection of test compound; for ED50 / Mouse PQW remark: Table 3; for Mouse PQW remark: remark beside S.C and P.O values; for Mouse PQW ED50 (mg/kg): Table 4, 3° carbinols within the scope of U.S. 4,485,109, head prints neither endpoint nor unit. The procedure: The anti-pheylquinone writhing (PQW) test modified from the methods of Siegmund et al. (Proc. Soc. Exp. Biol. Med. 95: 729-731, 1957) and Blumberg et al. (Proc. Exp. Biol. Med. 118: 763-767, 1965) was used to assess analgesia in mice. Male CF1 mice (Charles River Breeding Laboratories, Wilmington, MA), fasted for 16-22 h and weighing 18-23 g, were injected with randomized and coded doses of test compounds, then challenged with 1.25 mg/kg i.p. phenyl-p-benzoquinone (phenylquinone) 5 min prior to the specified observation time. The phenylquinone solution (0.1 mg/ml in 5% aqueous ethanol) was prepared daily and stored in foil-wrapped amber bottles to limit degradation. Mice were observed 10 min for the presence or absence of the characteristic abdominal constriction and stretching response beginning 30 min after injection of the test compound. Analgetic activity was calculated as the percentage of mice failing to respond to the phenylquinone challenge dose. […] Median effective doses (ED50's) and 95% confidence limits were determined numerically by the methods of Thompson (Bacteriological Rev. 11: 115-145, 1947), and Litchfield and Wilcoxon (J. Pharmacol. Exp. Ther. 96: 99.113, 1949).
The data shown in Table show the PQW ED₅₀ values for the compounds of the aforesaid examples.
Table 4 illustrates that the 3° carbinols within the scope of U.S. 4,485,109 have utility as analgesic agents.

Experiment [3] relates to Male CF mice. Put plainly: Antagonism of tetrabenazine-induced depression (exploratory loss and ptosis) in mice. It counts as in vivo. The settings on record: Mus musculus, po, 1 h, orally, one hour post-drug, tetrabenazine methane sulfonate 52 mg/kg i.p. The text has this: The prevention of tetrabenazine-induced sedation and depression in mice is a standard procedure used to detect and compare antidepressant compounds. The activity of antidepressant compounds in this procedure correlates well with human efficacy. (Barnett, et al., Int. J. Neuropharmac. 8: 73-79, 1969, and Vernier, et al., "The Pharmacodynamics of Amitriptyline" in Psychsomatic Medicine (Nodine & Moyer, editors) pp. 683-690, 1962).
Male CF mice (Charles River Breeding Laboratories, Wilmingon, MA), fasted for 16-22 hours and weighing 18-25 g, were injected with randomized and coded does of test compounds, then challenged with 52 mg/kg i.p. tetrabenazine methane sulfonate 30 minutes prior to the specified observation time. The tetrabenazine methane sulfonate solution (5.2 mg/ml in distilled water) was prepared daily and stored in foil-wrapped amber bottles to limit degradation. […] Exploratory loss was defined as failing to move to the perimeter of a 12.7 cm (5 inch) (12.7 cm) circle within 15 seconds of being placed at the center of the circle. Ptosis was defined as both eyelids closed 50% or more compared to normal. Antidepressant activity was calculated as the percentage of mice failing to respond to the tetrabenazine challenge dose. […] Median effective does (ED₅₀'s) were estimated using the Moving Average method of Thompson (Bacteriological Rev. 11: 115-145, 1947).
The data in Table 5 show ED₅₀ values for the compounds of the aforesaid examples.

The subject of experiment [4] is Male mice. Put plainly: Anorexia test from CNS screen (consumption of sweetened condensed milk spots). It counts as in vivo. The settings on record: Mus musculus; fasted male mice, oral doses, 0.5 h after administration, 10 min access to milk; read-out: ED₅₀ for Anorexia. The procedure: Male mice weighing 18-25 grams and fasted over-night for 17-21 h were used in these studies. At 0.5 h after administration of graded oral doses of compound prepared in aqueous Methocel® (methylcellulose, viscosity 100 mPa·s (CPS), grade A15C, Dow Chemical Co.) and dosed at 0.1 ml per 10 grams of body weight, each mouse was transferred to an individual, clear, Lucite® compartment (13.3 cm x 12.7 cm x 12.7 cm) with a wire mesh floor having 0.64 cm x 0.64 cm openings. Five compartments were linearly arranged in each cage unit. Inside each compartment was a section of a black Lucite® bar (13 cm x 1.2 cm x 1.2 cm), in the top of which were ten spot depressions (0.8 cm diameter), each containing 0.05 ml of 50% sweetened condensed milk. Ten (10) minutes later the mice were removed from to the compartments and the number of milk spots consumed by each mouse was counted. Fractions of spots consumed were also estimated and counted. Data were expressed as % decrease from control. ED₅₀ values were estimated using linear regression analysis.

The mark [5] stands for this setting: po, p.o., read-out: Mouse PQW ED₅₀ (Mg/Kg) P.O.
[6] abbreviates: sc, s.c., read-out: Mouse PQW ED₅₀ (Mg/Kg) S.C.
Setting [7] is: read-out: Oral ED₅₀ (mg/kg) for Prevention of Ptosis.

Structures are written as SMILES. Read-outs that look alike come from different tables or passages of the source.

For `CCC(O)C1(c2ccccc2)CCN(C)CC1` (centres unmarked) [4-phenyl-1-methyl-4-(1-hydroxypropyl)piperidine, reference compound], the “analgesic activity compared with the parent ketones” value in experiment [1] was “much less active as analgesics than the parent ketones”.

On to `CC(O)C1(c2cccc(Cl)c2)CCN(C)CC1` (stereo not drawn) [Example 1, 4-(3'-Chlorophenyl)-α,1-dimethyl-4-piperidinemethanol], for which the ED50 is 19 mg/kg in experiment [2] (setting [5]); 8.1 mg/kg in experiment [2] (setting [6]); 0.92 mg/kg in experiment [3] (read-out: Oral ED₅₀ (mg/kg) for Prevention of Exploratory Loss); 0.74 mg/kg in experiment [3] (setting [7]); 20 mg/kg in experiment [4].

As for `Cc1ccccc1C1(C(C)O)CCN(C)CC1` (centres unmarked) [Example 12], the results for the ED50 in experiment [2] (setting [5]), in experiment [2] (setting [6]) and in experiment [3] (setting [7]) were over 81 mg/kg, over 81 mg/kg and 1.03 mg/kg, respectively. For the same compound, the “Mouse PQW remark” value in experiment [2] was “Inactive”.

Regarding `CC(O)C1(c2ccccc2)CCN(C)CC1` (centres unmarked) [Example 3, 4-phenyl-1-methyl-4-(1-hydroxyethyl)piperidine], the ED50 in experiment [2] (setting [5]) is 38 mg/kg; in experiment [2] (setting [6]), 19 mg/kg. The “analgesic activity compared with the parent ketones” value in experiment [1] is reported as “much less active as analgesics than the parent ketones”.

On to `COc1ccc(C2(C(C)O)CCN(C)CC2)cc1` (centres unmarked) [Example 17], for which the ED50 was over 81 mg/kg in experiment [2] (setting [5]), over 81 mg/kg in experiment [2] (setting [6]) and 1.3 mg/kg in experiment [3] (setting [7]). For the same compound, the “Mouse PQW remark” value in experiment [2] was “Inactive”.

Turning to `CC(O)C1(c2ccc(C(F)(F)F)cc2)CCN(C)CC1` (stereo not drawn) [Example 16, 4(4'-Trifluoromethylphenyl)-α-1-dimethylpiperidinemethanol], the ED50 in experiment [2] (setting [5]) was over 81 mg/kg; in experiment [2] (setting [6]), over 81 mg/kg; in experiment [3] (setting [7]) it was 28 mg/kg; in experiment [4] it was 22 mg/kg. Further, in experiment [2], the “Mouse PQW remark” value was “Inactive”.

On to `CC(O)C1(c2ccc(F)c(F)c2)CCN(C)CC1` (centres unmarked) [Example 7], for which the ED50 is over 81 mg/kg in experiment [2] (setting [5]) and 38 mg/kg in experiment [2] (setting [6]).

As to `CC(O)C1(c2ccccc2F)CCN(C)CC1` (centres unmarked) [Example 4], the ED50 in experiment [2] (setting [5]) and in experiment [2] (setting [6]) was over 81 mg/kg in each case. In experiment [2], the “Mouse PQW remark” value is “Inactive”.

For `CN1CCC(c2cccc(C(F)(F)F)c2)(C2(O)CCCC2)CC1` [W], the entries for the “Mouse PQW ED50 (mg/kg)” value in experiment [2] (p.o.) and in experiment [2] (s.c.) were 12.0 and 16.0, respectively.

With `CCC(C)(O)C1(c2cccc(OC)c2)CCN(C)CC1` (centres unmarked) [CC], the entries for the “Mouse PQW ED50 (mg/kg)” value in experiment [2] (p.o.) and in experiment [2] (s.c.) were 68.0 and 23.0, respectively.

Consider `CC(O)C1(c2cccc(F)c2)CCN(C)CC1` (centres unmarked) [Example 5], for which the results for the ED50 in experiment [2] (setting [5]) and in experiment [2] (setting [6]) were over 81 mg/kg and 24 mg/kg, respectively.

Turning to `COc1cccc(C2(C3(O)CCC3)CCN(C)CC2)c1` [EE], the results for the “Mouse PQW ED50 (mg/kg)” value in experiment [2] (p.o.) and in experiment [2] (s.c.) were over 54.0 and 22.0, respectively.
